Blank lines part the entries; values can stand above or below the compound they belong to.
Columns and labels:
Format in all cases: functional
SNU-638 = experiment: Antiproliferative activity against human SNU-638 cells assessed as cell growth inhibition
PC-3 = experiment: Antiproliferative activity against human PC-3 cells assessed as cell growth inhibition
MV4-11 [1] = experiment: Antitumor activity against human MV4-11 cells xenografted in mouse assessed as reduction in tumour volume at 10 mg/kg per day, iv measured after 21 days relative to control; parameters: scale not given: the % may be the effect or the level left; details: time 21 day
MV4-11 [2] = experiment: Antiproliferative activity against human MV4-11 cells assessed as cell growth inhibition
MeWo = experiment: Antitumor activity against human MeWo cells xenografted in mouse assessed as reduction in tumour volume at 50 mg/kg per day, po administered via oral gavage measured after 14 days relative to control; parameters: scale not given: the % may be the effect or the level left; details: time 14 day
[3] = Antitumor activity against human TT cells xenografted in BALB/c nu/nu mouse assessed as reduction in tumour weight at 40 mg/kg per day, po administered via oral gavage daily measured after 21 days relative to control; parameters: scale not given: the % may be the effect or the level left; details: time 21 day
[4] = Antiproliferative activity against human TT cells assessed as cell growth inhibition measured after 72 hrs by EZ-CyTox reagent based analysis

- GI50 (SNU-638): 2.25 µM
- GI50 (PC-3): 1.1 µM
- GI50 (MV4-11 [2]): 0.0012 µM
Compound: COC(=O)c1ccc2c(c1)/C(=C1/Nc3ccccc3/C1=N\OCCN1CCNCC1)C(=O)N2.Cl.Cl
- Activity (MV4-11 [1]): 100%

Compound: Cl.Cl.O=C1Nc2c(Br)cccc2/C1=C1/Nc2ccccc2/C1=N\OCCN1CCNCC1
- Activity (MeWo): 37%

Compound: Cl.O=C1Nc2ccccc2/C1=C1/Nc2ccccc2/C1=N\OCCN1CCNCC1
- Activity [3]: 62.5%
- GI50 [4]: 68.2 µM
